Reference: ChEMBL document CHEMBL3886711, “Substituted tetrahydrocarbazole and carbazole carboxamide compounds” (2016)
Where “and” joins values, the source holds several entries; their conditions need not be identical. Identical values can stand only once.

Biological target: Tyrosine-protein kinase JAK2 (Homo sapiens, UniProt O60674)
Assay: Jak2 Tyrosine Kinase Assay: The assays were performed in V-bottom 384-well plates. The final assay volume was 30 μl prepared from 15 μl additions of enzyme and substrates (fluoresceinated peptide and ATP) and test compounds in assay buffer (100 mM HEPES pH 7.4, 10 mM MgCl2, 25 mM beta-glycerolphosphate, […] Brij 35 surfactant and 4 mM DTT). The reaction was initiated by the combination of Jak2

Sequence of Tyrosine-protein kinase JAK2 (O60674 whole entry): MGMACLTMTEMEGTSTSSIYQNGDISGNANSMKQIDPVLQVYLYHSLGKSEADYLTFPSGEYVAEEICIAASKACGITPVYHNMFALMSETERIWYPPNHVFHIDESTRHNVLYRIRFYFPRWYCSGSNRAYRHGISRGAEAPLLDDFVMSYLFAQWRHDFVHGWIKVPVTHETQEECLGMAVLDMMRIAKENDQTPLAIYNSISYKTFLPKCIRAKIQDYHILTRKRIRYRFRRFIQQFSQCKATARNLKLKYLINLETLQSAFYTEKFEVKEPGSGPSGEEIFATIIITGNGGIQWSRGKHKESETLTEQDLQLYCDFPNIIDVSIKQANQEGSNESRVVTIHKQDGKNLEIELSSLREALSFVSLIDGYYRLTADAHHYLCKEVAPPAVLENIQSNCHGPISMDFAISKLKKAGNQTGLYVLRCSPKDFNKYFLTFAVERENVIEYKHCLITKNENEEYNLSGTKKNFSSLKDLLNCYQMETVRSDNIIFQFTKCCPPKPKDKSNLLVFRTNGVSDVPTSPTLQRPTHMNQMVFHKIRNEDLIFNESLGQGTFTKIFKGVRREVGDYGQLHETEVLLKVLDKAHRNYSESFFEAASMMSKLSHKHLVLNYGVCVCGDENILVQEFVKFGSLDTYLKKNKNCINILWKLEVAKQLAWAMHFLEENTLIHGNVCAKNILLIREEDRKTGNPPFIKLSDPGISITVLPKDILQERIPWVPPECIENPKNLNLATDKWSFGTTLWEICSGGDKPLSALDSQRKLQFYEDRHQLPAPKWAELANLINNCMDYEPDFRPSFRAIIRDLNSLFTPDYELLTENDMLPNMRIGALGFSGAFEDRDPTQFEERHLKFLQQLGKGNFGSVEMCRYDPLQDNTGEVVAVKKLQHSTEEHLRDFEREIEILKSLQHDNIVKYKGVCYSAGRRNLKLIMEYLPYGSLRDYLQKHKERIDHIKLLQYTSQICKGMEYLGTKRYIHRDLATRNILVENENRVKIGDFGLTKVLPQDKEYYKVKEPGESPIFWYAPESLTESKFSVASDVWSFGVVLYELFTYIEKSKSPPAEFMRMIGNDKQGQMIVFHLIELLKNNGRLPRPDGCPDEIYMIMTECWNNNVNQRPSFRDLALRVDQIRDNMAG

Row | IC50 | SMILES
1 | 1400 nM and 970 nM | Cc1c(-c2c(Cl)cc(C(N)=O)c3[nH]c4cc(C(C)(C)O)ccc4c23)cccc1-n1c(=O)cc2c(Cl)cccn2c1=O
2 | 1700 nM | Cc1c(-c2c(F)cc(C(N)=O)c3[nH]c4cc(C(C)(C)O)ccc4c23)cccc1-n1c(=O)[nH]c2c(F)cccc2c1=O
